One test deals with T1, human CYP3A4 (Homo sapiens, UniProt P08684).
T1 construct: purchased Daiichikagakuyakuhin
Briefly: Inhibitory activity against human CYP3A4 (7-benzyloxyquinoline substrate, expression system microsome). The settings on record: substrate 7-BQ 40 μM, expression system microsome 0.25 mg/mL, 30 minutes incubation, fluorescence. In kind it is in vitro ADME. The method, then:
Inhibitory activity against human CYP3A4 of the compound of the present invention can be evaluated by an improved method described in Drug Metabolism and Disposition, Vol. 28(12), 1440-1448 (2000).
For example, a reaction solution consisted of potassium phosphate buffer (pH 7.4) (final concentration: 200 mM), magnesium chloride hexahydrate (final concentration: 5 mM), substrate (7-benzyloxyquinoline (7-BQ), final concentration: 40 μM), and expression system microsome (Daiichikagakuyakuhin, final concentration: 0.25 mg/mL) was prepared. 100 μL of the reaction solution is dispensed in 96 well plate, and added by 50 μL of an aqueous solution containing test a compound and 0.8% acetonitrile, to carry out 10 minutes of preincubation at 37° C. 50 μL of a reduced nicotinamide adenine dinucleotide phosphate (NADPH, 4 mM) is added to initiate a reaction. The fluorescence intensity of each well was measured at the time when NADPH was added and after incubated for 30 minutes. Excitation wavelength at 409 nm and emission wavelength at 530 nm of quinolinol, which is metabolite of substrate, was measured. Inhibition ratio (%) of the test compound was calculated by the following calculation formula to obtain IC50 value. Inhibition ratio(%)=[1−{(measured value when a test compound is added)−(blank value)/(control value−blank value)}]×100

Another test deals with human CCR5 (Homo sapiens, UniProt P51681). As to the kind of experiment: CCR5 binding test ([125I]MIP-1β binding inhibition). The following applies: inhibition of [125I]MIP-1β (0.1 nM) binding to membrane fraction of human CCR5 stably over-expressing CHO-K1 cell, 25° C., 120 minutes. As for the experimental part:
A membrane fraction of the human CCR5 stably over-expressing CHO-K1 cell was suspended in assay buffer (50 mM HEPES/0.5% BSA/1 mM calcium chloride/5 mM magnesium chloride, pH 7.4) and dispensed in a 48 well polypropylene plate with U-shaped bottom in the amount corresponding to 1 μg of protein/well. Then, an unlabelled ligand was added so as to obtain a concentration of 0.1 μM in a non-specific binding group, while a compound was added so as to obtain a final concentration of 0.003 to 0.3 μM in a compound group. Subsequently, [^125I]MIP-1β was added so as to obtain a final concentration of 0.1 nM and a mixture thereof was incubated at 25° C. for 120 minutes. The membrane fraction was trapped with a filter, washed, and then radioactivity of [^125I]MIP-1β was measured by a γ counter.
Inhibition ratio (%) of the test compound was calculated by the following calculation formula. Inhibition ratio=[(Ec−Ea)/Ec]×100 • Ec: Radioactivity of when DMSO control solution is added−radioactivity of non-specific binding group • Ea: Radioactivity of when test compound is added−radioactivity of non-specific binding group

The source of these data is patent US8003642B2, “Nitrogenated heterocyclic derivative, and pharmaceutical agent comprising the derivative as active ingredient” (Ono Pharmaceutical Co., Ltd., priority 2006, dated 2011).

The IC50 is the concentration needed to halve the response being measured. A high value points to a need for much substance.

Each structure is given as a SMILES string.

T1 sequence (P08684 whole entry): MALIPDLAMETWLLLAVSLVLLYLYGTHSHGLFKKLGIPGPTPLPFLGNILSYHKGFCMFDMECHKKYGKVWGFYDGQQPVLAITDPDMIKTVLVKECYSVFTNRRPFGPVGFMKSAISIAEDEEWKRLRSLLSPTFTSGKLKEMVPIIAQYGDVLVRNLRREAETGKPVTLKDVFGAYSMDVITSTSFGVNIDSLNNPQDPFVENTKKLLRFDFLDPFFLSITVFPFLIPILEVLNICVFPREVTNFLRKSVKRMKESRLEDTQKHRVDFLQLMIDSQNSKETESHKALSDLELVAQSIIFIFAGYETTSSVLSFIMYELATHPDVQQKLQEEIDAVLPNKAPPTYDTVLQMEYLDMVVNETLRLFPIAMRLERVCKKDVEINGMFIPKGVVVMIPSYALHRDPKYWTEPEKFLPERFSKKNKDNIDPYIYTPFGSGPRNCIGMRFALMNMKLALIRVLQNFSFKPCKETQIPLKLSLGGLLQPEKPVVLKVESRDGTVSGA
Sequence of human CCR5 (P51681 whole entry): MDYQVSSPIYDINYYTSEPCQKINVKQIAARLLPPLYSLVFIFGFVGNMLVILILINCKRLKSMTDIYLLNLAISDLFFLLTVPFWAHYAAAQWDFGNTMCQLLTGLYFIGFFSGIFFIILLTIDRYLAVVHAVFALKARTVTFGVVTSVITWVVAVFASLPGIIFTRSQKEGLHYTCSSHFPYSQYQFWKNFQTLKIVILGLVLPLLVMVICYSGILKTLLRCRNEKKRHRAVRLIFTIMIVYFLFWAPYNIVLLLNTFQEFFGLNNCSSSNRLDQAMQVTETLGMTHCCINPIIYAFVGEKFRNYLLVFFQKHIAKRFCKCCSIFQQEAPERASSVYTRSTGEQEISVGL

Regarding `CCCCN(C(=O)Nc1cc(C(N)=O)c(F)cc1F)C1CCN(Cc2ccc(Oc3ccc(C(=O)N4CCN(C(C)=O)CC4)cc3)nc2C)CC1` [Example 16(60), 5-{[{1-[(6-{4-[(4-acetyl-1-piperazinyl)carbonyl]phenoxy}-2-methyl-3-pyridinyl)methyl]-4-piperidinyl}(butyl)carbamoyl]amino}-2,4-difluorobenzamide], the IC50 on human CYP3A4 is no less than 30 µM.
`CCCCN(C(=O)Nc1cc(C(N)=O)c(F)cc1F)C1CCN(Cc2ccc(Oc3ccc(C(=O)NCC)cc3)nc2C)CC1` [Example 16(62), 5-({butyl[1-({6-[4-(ethylcarbamoyl)phenoxy]-2-methyl-3-pyridinyl}methyl)-4-piperidinyl]carbamoyl}amino)-2,4-difluorobenzamide] returned an IC50 at human CCR5 of no more than 0.1 µM.
On to `CCCCN(C(=O)Nc1cc(C(N)=O)c(F)cc1F)C1CCN(Cc2ccc(Oc3ccc(C(=O)N4CCN(C)CC4)cc3)nc2C)CC1` [Example 16(63), 5-[(butyl {1-[(2-methyl-6-{4-[(4-methyl-1-piperazinyl)carbonyl]phenoxy}-3-pyridinyl)methyl]-4-piperidinyl}carbamoyl)amino]-2,4-difluorobenzamide], for which, on human CYP3A4, the IC50 was no less than 30 µM.
For `CCCCN(C(=O)Nc1cc(C(N)=O)c(F)cc1F)C1CCN(Cc2ccc(Oc3ccc(C(=O)N(C)C)cc3)nc2C)CC1` [Example 16(61), 5-({butyl[1-({6-[4-(dimethylcarbamoyl)phenoxy]-2-methyl-3-pyridinyl}methyl)-4-piperidinyl]carbamoyl}amino)-2,4-difluorobenzamide], the 50% inhibitory concentration (IC50) was no less than 30 µM against human CYP3A4 and no more than 0.1 µM at human CCR5.
